Reference: patent US12059400B2, “Medical compound” (VERA SALUS RICERCA S.R.L., priority 2017, dated 2024)

Experiments:
SCC cells (A431) = experiment: Cell proliferation, crystal violet method; format: cell-based, human; details: for A431 cell growth vs vehicle control: 90 μM, FIG. 2a, 2b; for IC50: crystal violet, spectrophotometer, read-out: IC50 anti-proliferative effect, SCC (A431)
Method: (§1) The compound according to the invention, and in particular the synthetic quercetin derivatives described and illustrated herein were investigated in vitro by using human tumour cells and assessing their impact on the tumour proliferative capacity, with regard to the tumours described above. In particular, the following human tumour cell lines were assessed experimentally: 1) HCT116, colon adenocarcinoma cells; 2) H1299, lung adenocarcinoma cells; 3) A375, melanoma cells, and 4) A431, squamous skin cell carcinoma; 5) 786-0, renal carcinoma cells; 6) PC3, prostate carcinoma cells; 7) BT549, mammary carcinoma cells; 8) CAL27, tongue carcinoma cells (belonging to the head-and-neck carcinomas); 9) HepG2, hepatocellular carcinoma cells; 10) PANC-1, pancreas carcinoma cells; 11) T24, bladder carcinoma cells; 12) OVCAR-3, ovarian carcinoma cells. In addition, a normal human cell line, WS1 (skin fibroblasts) was also treated with the novel synthetic compounds. Cell proliferation was quantified by the crystal violet method with a spectrophotometer. In short, after acquiring serial images (0, 24 and 48 hrs) with the EVOS XL Cell Imaging System microscope (Thermo Fisher Scientific), the cells imaged at 48 hrs were fixed with paraformaldehyde (4%) and stained with Crystal Violet (1%). Then, the specific absorbance (λ=590 nm) at 48 hrs was measured with a spectrophotometer (Infinite®200 PRO, Tecan). Data analysis was carried out by using ad-hoc Excel files for graphical representation and statistical processing (t-test). Moreover, the results obtained with Crystal Violet were confirmed by using another cell proliferation assessment method based on the real time cellular analyzer XCELLigence RTCA DP (ACEA Biosciences, Inc.). This tool allows cell growth to be monitored from electrical impedance-derived quantitative values (the so-called Cell Index) measured by tiny electrodes located at the base of the culture wells. Proliferation is monitored for several days (5-7) by setting a Cell Index per minute measure on the instrument. The data are analysed by processing various parameters calculated by the dedicated software, such as the cell duplication time, the slope and the Max Cell Index. […] Cell proliferation was quantitated spectrophotometrically by the crystal violet method.

[1] = test system: human colon (HCT116) tumour line; experiment: Apoptosis, acridine orange/ethidium bromide method; format: cell-based; details: 2 hrs; Compound 2 50 μM, 5 40 μM, 4 40 μM, 3 60 μM, 1 60 μM; FIG. 18
Excerpt: Tumour cell apoptosis was quantified by the acridine orange/ethidium bromide (AO/EB) method and by using a fluorescence microscope and image-J. In short, after treatment with the test compounds (2 hrs), the tumour cells were placed in contact with an AO/EB solution (in sterile H2O) and photographed with a fluorescence microscope (Leica) by using the ≥20× objective (so as to distinguish the morphology of cell nuclei). In this way, the living cells are labelled with AO and emit fluorescence in the green channel, while the necrotic cells, which have undergone the rupture of the plasma membrane, are permeable to EB and emit fluorescence in the red channel. In contrast, apoptotic cells are permeable to both AO and EB, and as a consequence of the colocalization of the two fluorescences appear yellow-orange when the two individual microscope-acquired fluorescences are superimposed by using the editing program Image J. The objective quantification of the colocalization areas (apoptotic cells) and the non-colocalization areas (living or necrotic cells) was carried out on a number of cells ≥300/condition through the use of Apoptosis Correlator (ImageJ plug-in) and shown as the percentage of living (green), necrotic (red) or apoptotic (yellow-orange) tumour cells. Data analysis was carried out by using GraphPad Prism 6 for graphical representation and statistical processing (2-way ANOVA test).

[2] = test system: human renal carcinoma cells (786-0); experiment: Cell proliferation, crystal violet method; format: cell-based; details: for 786-0 cell growth vs vehicle control: 80 μM, FIG. 4a, 4b; for IC50: crystal violet, spectrophotometer, read-out: IC50 anti-proliferative effect, RCC - (786-O)
Method: as §1

[3] = test system: human bladder carcinoma cells (T24); experiment: Cell proliferation, crystal violet method; format: cell-based; details: for T24 cell growth vs vehicle control: 80 μM, FIG. 10a, 10b; for IC50: crystal violet, spectrophotometer, read-out: IC50 anti-proliferative effect, BC (T24)
Method: as §1

[4] = test system: human pancreatic carcinoma cells (PANC-1); experiment: Cell proliferation, crystal violet method; format: cell-based; details: for PANC-1 cell growth vs vehicle control: 80 μM, FIG. 9a, 9b; for IC50: crystal violet, spectrophotometer, read-out: IC50 anti-proliferative effect, PCC (PANC-1)
Method: as §1

[5] = test system: human prostate carcinoma cells (PC3); experiment: Cell proliferation, crystal violet method; format: cell-based; details: for PC3 cell growth vs vehicle control: 80 μM, FIG. 5a, 5b; for IC50: crystal violet, spectrophotometer, read-out: IC50 anti-proliferative effect, PC - (PC3)
Method: as §1

[6] = test system: human ovarian carcinoma cells (OVCAR-3); experiment: Cell proliferation, crystal violet method; format: cell-based

Substance | A431 cell growth vs vehicle control (SCC cells (A431)) | IC50 (SCC cells (A431)) [µM] | induction of apoptosis in HCT116 [1] | 786-0 cell growth vs vehicle control [2] | IC50 [2] [µM] | T24 cell growth vs vehicle control [3] | IC50 [3] [µM] | PANC-1 cell growth vs vehicle control [4] | IC50 [4] [µM] | PC3 cell growth vs vehicle control [5] | IC50 [5] [µM] | OVCAR-3 cell growth vs vehicle control ([6]; 60 μM, FIG. 11a, 11b) | IC50 ([6]; crystal violet, spectrophotometer, read-out: IC50 anti-proliferative effect, OCC - (OVCAR)) [µM]
2-(3,4-dihydroxyphenyl)-5,7-dihydroxy-4-oxo-4H-chromen-3-yl acetate [Compound 4] | significantly inhibit | 31 | induced apoptosis | significantly inhibit | 41.2 | significantly inhibit | 45.5 | significantly inhibit | 69.6 | significantly inhibit | 34.9 |  | 
2-(3,4-Dihydroxyphenyl)-3-hexadecyloxy-5,7-dihydroxy-4H-chromen-4-one [Compound 3] |  |  | induced apoptosis | significantly inhibit | 65.4 | significantly inhibit | 44.9 | significantly inhibit | 156 | significantly inhibit | 46.2 |  | 
2-(3,4-dihydroxyphenyl)-5,7-dihydroxy-4-oxo-4H-chromen-3-yl palmitate [Compound 5] | significantly inhibit | 25.5 | induced apoptosis | significantly inhibit | 32.6 | significantly inhibit | 50.5 | significantly inhibit | 69.4 | significantly inhibit | 56.9 | significantly inhibit | 79.2
2-(3,4-Dihydroxyphenyl)-3-ethoxy-5,7-dihydroxy-4H-chromen-4-one [Compound 1] |  |  | induced apoptosis | significantly inhibit | 149 |  | > 1000 |  | > 1000 | significantly inhibit | 79.3 |  | 
2-(3,4-Dihydroxyphenyl)-3-hexyloxy-5,7-dihydroxy-4H-chromen-4-one [Compound 2] | significantly inhibit | 40.3 | induced apoptosis | significantly inhibit | 72.5 | significantly inhibit | 66.8 | significantly inhibit | 95.4 |  | 309 |  | 
